Assays:
[1] = Storage stability of precursor or polymer against polymerization or depolymerization; assay type: physicochemical; details: coated and heated at 100° C for 4 hrs under vacuum, no stabilizer
Text: The self-catalysis of α-lipoic acid takes place by the activation of disulfide with a carboxylic acid. Thus, we hypothesized that introduction of a functional group with higher electron density than disulfide will act as a potential competitor of disulfide, thereby suppressing initiation. […] However, the liquid undergoes ultrafast polymerization when brought into contact with water (FIG. 1) to yield an adhesive polymer. We surmise that due to its higher hydration energy, L4 becomes solvated as it comes in contact with water, leading to disulfide activation by the carboxylic acids. This approach provides an adhesive precursor suitable for spray, brush or injection mode of application. […] The coated PET was heated at 100° C. for 4 hrs under vacuum. The heat created a stable, sticky viscoelastic polymer, showing that the stabilizer molecules are also effective at high temperatures. By comparison, for example, pure α-lipoic acid treated under similar conditions also forms a sticky polymer, but within 2-3 days becomes a solid crystalline spot indicating depolymerization of the polymer. Although a stabilizer is needed in many applications that require a prolonged stability, the poly(asparagusic acid) without the stabilizer is sufficiently stable for some uses. […]

[2] = Gelation of ethanolic adhesive precursor solution; assay type: physicochemical; details: pure solution at similar concentration, extended periods of time
[3] = Polymerization and depolymerization of ethanolic precursor on exposure to water or aqueous phosphate buffer; assay type: physicochemical; details: 400 mg/mL ethanolic solution added to aqueous phosphate buffer
Description: An ethanolic solution of pure α-lipoic acid L1 was prepared at 400 mg/mL and added to an aqueous phosphate buffer. A metastable sticky polymer was obtained, but within a few minutes (<5 min), the sticky polymer converted to a solid monomeric precipitate with no apparent adhesive property.
At any time prior to or after gelation of the precursor solution, exposure to water triggers dithiolane polymerization which can be exploited for the purposes of isolating a polymer adhesive or for adhering objects together. […] We believe α-lipoic acid undergoes self-catalyzed polymerization followed by stabilization with NHS esters. Nonetheless, the aqueous polymerization appears to be less sensitive and extremely fast irrespective of the solution concentrations. We believe that due to the amphiphilic nature of the α-lipoic acid, it undergoes micelle-like self-reorganization in contact with water, which locally concentrates the cyclic backbone to accelerate the polymerization rate. Furthermore, detailed ^1H NMR experiments of diluted ethanolic solution of the mixtures show excellent stability of the NHS esters even at an extended period. Therefore, this opens the possibility of an on-demand aqueous polymerization from a precursor ethanolic solution, which we considered to be advantageous for translation in medical and other underwater applications. […]

[4] = Lap shear tissue adhesion on wet bovine pericardium; details: adhesive with 14 mol % L2 vs 7 mol %
Description: An atomized spray was initially chosen, as it allows for quick evaporation of ethanol to increase the concentration of the mixture rapidly and eliminate any undesired flow of the adhesive solution on the tissue surfaces. A solution of L1 and L2 (7 mol %) was prepared and sprayed on two pieces of tissue surfaces (40 μL in 1 cm^2) and the two pieces were immediately brought into contact. After forming the lap joints, they were incubated for 2 minutes in PBS at 37° C. for further curing of the polymer network. The lap shear strength after 2 minutes on wet bovine pericardium tissue was >100 kPa, which was only slightly lower than medical-grade superglue (See FIG. 3A). […] The failure mode analyses of the lap joints was performed by applying N-bromo succinimide to the failed tissue surfaces to visually indicate by charge transfer complexation of disulfide functionality and therefore the presence of adhesive polymer. […] The enhanced lap shear strength at longer incubation time is consistent with the enhanced cohesive strength of the polymer network as observed in the rheology analysis of the wet polymer (see FIG. 2E).
Lap shear tissue adhesion was also performed with L3 on both wet bovine pericardium and pig skin.
To study the effect of stabilizer concentration on tissue adhesion strength, another lap shear test was performed with a higher L2 concentration (14 mol %). […]

time until sticky polymer becomes solid crystalline spot (depolymerization) [1] [days] | gel formation [2] | time until sticky polymer converted to solid monomeric precipitate (depolymerization) [3] [min] | shear strength at higher stabilizer concentration [4] | Structure (SMILES)
2 to 3 | did not form a gel | < 5 | – | O=C(O)CCCCC1CCSS1 (stereo not drawn) [L1, α-lipoic acid]
– | – | – | No significant difference | O=C(CCCCC1CCSS1)ON1C(=O)CCC1=O (stereo not shown) [L2, NHS-derivatized lipoic acid]

From patent publication US12152174B2, “Adjustably stable adhesive compositions for medical and non-medical uses, and recycling” (THE REGENTS OF THE UNIVERSITY OF CALIFORNIA, priority 2023, dated 2024)
